Experimental data from patent US11629143B2, “HipK4 inhibitors and uses thereof” (Vibliome Therapeutics, LLC, priority 2020, dated 2023).

Assays:
Test in all cases: Kinase panel (mobility shift)
Type in all cases: biochemical
BRK = BRK (Homo sapiens, UniProt Q13882)
Description: (§1) The disclosed compounds were tested for activity against a panel of 299 kinases. The target enzyme was incubated with fluorescently labeled substrate and test compounds in a standardized reaction mixture in 384 well plates. Upon termination of the reaction, samples were introduced onto microfluidic chips. The samples migrated through channels in the chips and product and substrate were separated based on the difference in their charge (electrophoretic mobility shift). Enzyme activity was measured by direct comparison of the fluorescence in the product and substrate peaks. […] In the tables A=95% or greater at 5 um, B=90%-94% at 5 um, and C=80%-89% at 5 um. [note to draft: we included category D for 50-79 and category E is less than 50%. Feel free to remove if not needed)

EPH-A4 = EPH-A4 (Homo sapiens, UniProt P54764)
Description: as §1

EPH-A5 = EPH-A5 (Homo sapiens, UniProt P54756); conditions: at 5 um
Description: as §1

HIPK4 = target: T1, HIPK4 (Homo sapiens, UniProt Q8NE63)
T1 sequence (Q8NE63 1-616): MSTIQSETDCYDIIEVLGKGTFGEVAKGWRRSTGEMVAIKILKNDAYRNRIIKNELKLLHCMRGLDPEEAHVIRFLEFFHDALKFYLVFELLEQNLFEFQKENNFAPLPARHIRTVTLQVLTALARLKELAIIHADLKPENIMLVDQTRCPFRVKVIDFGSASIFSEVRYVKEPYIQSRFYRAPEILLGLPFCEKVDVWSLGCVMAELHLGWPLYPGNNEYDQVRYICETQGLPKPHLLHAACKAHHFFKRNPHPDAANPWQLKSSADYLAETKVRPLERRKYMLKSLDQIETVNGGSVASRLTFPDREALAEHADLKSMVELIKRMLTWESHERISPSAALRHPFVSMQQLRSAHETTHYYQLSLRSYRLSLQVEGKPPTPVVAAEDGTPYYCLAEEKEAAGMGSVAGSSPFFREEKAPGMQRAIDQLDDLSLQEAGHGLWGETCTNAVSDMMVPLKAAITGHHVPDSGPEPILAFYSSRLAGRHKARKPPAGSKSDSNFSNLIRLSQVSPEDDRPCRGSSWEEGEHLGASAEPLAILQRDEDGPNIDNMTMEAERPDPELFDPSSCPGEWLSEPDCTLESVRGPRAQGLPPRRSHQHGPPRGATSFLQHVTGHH
Description: as §1

KIT = KIT (Homo sapiens, UniProt P10721)
Description: as §1

LCK = LCK (Homo sapiens, UniProt P06239)
Description: as §1

MUSK = target: T2, MUSK (Homo sapiens, UniProt O15146)
T2 sequence (O15146 24-869): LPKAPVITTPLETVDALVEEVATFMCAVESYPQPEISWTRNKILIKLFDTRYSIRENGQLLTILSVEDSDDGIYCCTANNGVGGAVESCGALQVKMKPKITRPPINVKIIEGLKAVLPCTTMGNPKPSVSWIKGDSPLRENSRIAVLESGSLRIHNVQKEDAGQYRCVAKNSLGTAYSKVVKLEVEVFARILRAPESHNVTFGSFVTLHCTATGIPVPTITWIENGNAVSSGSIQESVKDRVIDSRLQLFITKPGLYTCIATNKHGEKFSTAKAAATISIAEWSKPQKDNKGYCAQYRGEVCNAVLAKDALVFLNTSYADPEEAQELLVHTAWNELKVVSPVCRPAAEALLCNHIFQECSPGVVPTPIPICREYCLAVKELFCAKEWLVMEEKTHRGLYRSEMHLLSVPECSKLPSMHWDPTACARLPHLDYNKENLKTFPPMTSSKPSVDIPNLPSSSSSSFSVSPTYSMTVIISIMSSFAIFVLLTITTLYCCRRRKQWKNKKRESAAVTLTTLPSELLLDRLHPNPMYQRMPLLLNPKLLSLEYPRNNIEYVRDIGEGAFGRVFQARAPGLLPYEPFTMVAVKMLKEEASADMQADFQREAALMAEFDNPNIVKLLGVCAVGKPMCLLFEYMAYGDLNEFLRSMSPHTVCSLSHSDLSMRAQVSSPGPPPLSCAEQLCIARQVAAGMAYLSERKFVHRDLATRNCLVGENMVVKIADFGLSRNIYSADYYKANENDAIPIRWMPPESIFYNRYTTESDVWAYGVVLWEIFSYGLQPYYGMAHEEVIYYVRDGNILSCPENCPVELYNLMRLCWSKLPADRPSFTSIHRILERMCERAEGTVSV
Description: as §1

PDGFR-a = PDGFR-a (Homo sapiens, UniProt P16234)
Description: as §1

TRKA = TRKA (Homo sapiens, UniProt P04629)
Description: as §1

Sequence of LCK (P06239 whole entry, species assumed): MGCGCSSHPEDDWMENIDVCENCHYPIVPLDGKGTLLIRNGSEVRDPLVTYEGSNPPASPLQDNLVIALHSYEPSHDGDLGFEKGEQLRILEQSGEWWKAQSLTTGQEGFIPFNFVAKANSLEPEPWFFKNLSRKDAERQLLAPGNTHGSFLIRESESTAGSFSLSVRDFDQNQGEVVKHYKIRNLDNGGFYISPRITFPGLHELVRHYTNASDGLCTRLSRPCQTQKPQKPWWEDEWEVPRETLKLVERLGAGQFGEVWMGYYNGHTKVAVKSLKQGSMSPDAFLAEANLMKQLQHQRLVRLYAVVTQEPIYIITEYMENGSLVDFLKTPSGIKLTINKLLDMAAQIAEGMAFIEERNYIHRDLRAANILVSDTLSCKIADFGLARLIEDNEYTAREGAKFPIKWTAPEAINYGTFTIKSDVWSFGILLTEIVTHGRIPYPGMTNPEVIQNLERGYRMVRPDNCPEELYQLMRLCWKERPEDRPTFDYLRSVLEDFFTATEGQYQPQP
Sequence of KIT (P10721 26-976, species assumed): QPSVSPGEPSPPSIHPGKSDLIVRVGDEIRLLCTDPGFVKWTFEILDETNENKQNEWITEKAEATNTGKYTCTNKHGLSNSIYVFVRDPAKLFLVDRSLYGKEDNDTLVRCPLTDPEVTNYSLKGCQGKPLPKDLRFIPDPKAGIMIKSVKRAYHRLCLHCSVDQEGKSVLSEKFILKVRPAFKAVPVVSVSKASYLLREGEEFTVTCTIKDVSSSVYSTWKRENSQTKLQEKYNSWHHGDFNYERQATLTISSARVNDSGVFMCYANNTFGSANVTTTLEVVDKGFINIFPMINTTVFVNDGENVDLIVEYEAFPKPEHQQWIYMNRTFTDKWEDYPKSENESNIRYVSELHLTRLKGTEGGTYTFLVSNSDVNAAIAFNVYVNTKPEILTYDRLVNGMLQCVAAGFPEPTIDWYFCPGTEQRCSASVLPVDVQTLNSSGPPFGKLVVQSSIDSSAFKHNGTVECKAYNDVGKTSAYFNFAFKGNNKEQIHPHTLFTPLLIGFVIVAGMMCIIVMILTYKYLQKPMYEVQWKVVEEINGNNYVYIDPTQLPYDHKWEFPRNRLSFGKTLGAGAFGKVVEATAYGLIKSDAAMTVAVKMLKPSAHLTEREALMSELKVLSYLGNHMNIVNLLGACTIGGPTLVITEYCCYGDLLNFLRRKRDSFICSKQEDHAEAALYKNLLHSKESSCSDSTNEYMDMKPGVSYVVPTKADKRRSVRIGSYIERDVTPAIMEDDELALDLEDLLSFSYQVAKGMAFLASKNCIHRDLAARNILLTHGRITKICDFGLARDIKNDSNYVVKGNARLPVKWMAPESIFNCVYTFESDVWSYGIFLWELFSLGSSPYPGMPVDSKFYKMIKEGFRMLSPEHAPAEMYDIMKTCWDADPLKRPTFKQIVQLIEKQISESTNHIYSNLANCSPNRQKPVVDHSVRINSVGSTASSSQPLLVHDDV
Sequence of EPH-A4 (P54764 20-986, species assumed): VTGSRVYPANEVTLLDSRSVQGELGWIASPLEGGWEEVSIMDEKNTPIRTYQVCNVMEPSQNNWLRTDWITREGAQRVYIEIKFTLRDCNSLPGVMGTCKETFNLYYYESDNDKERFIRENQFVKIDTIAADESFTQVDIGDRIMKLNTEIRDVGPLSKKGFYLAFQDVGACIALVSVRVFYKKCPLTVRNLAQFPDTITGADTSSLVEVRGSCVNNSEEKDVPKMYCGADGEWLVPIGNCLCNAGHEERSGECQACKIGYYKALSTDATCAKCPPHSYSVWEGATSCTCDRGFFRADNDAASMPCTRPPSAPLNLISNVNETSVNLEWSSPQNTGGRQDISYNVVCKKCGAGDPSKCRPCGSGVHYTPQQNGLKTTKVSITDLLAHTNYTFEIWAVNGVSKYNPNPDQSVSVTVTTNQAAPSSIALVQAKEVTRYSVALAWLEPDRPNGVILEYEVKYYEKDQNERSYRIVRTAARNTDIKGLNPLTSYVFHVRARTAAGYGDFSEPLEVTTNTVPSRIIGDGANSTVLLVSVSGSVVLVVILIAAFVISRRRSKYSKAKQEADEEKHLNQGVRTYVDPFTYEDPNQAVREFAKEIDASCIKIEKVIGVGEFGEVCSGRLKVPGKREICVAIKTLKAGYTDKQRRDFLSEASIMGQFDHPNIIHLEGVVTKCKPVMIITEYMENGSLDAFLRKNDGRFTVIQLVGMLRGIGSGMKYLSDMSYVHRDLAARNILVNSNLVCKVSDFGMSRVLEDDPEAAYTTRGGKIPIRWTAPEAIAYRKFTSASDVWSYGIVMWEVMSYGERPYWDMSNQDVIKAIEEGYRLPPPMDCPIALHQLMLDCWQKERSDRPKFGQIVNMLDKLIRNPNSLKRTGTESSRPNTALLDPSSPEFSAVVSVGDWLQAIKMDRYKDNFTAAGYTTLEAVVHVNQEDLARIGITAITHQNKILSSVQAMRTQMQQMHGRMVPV
Sequence of EPH-A5 (P54756 25-1037, species assumed): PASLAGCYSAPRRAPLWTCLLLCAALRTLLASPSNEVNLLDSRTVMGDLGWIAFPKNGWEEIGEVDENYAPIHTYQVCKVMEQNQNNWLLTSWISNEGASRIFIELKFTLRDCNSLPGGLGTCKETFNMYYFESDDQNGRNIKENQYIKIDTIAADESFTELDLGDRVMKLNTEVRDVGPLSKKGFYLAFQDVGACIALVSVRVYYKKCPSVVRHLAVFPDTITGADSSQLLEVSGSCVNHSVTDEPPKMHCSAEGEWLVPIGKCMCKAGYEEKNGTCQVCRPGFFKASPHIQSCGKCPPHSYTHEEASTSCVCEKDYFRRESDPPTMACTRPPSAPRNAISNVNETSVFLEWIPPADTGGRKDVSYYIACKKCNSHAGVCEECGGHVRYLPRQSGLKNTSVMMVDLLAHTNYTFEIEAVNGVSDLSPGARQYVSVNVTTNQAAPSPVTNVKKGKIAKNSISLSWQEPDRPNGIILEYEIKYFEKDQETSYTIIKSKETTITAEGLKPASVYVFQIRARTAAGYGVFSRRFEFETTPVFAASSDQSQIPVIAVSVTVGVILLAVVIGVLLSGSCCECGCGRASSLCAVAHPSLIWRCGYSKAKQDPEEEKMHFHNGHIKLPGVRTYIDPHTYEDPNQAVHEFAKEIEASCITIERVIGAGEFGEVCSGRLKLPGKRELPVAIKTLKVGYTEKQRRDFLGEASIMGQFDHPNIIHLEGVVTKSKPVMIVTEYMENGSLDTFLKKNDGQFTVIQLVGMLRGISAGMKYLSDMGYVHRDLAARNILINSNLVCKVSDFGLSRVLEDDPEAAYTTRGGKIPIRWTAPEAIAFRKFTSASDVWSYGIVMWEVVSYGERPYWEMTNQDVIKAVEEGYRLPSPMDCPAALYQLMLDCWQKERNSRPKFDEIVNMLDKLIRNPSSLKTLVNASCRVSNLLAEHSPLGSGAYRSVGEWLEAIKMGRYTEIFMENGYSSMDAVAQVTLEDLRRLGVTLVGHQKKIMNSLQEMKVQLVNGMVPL
Sequence of BRK (Q13882 whole entry, species assumed): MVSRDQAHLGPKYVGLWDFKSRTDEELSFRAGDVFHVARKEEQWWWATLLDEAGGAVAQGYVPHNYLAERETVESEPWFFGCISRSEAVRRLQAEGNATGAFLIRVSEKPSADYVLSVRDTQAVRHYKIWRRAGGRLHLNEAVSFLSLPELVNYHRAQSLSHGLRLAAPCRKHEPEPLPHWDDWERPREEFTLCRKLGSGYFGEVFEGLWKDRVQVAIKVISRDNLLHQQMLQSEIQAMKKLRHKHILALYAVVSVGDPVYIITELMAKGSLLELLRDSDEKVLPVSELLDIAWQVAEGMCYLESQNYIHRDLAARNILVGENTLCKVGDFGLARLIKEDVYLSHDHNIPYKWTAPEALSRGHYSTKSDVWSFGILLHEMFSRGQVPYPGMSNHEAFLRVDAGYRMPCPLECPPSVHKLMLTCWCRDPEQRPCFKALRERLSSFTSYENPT
Sequence of TRKA (P04629 33-796, species assumed): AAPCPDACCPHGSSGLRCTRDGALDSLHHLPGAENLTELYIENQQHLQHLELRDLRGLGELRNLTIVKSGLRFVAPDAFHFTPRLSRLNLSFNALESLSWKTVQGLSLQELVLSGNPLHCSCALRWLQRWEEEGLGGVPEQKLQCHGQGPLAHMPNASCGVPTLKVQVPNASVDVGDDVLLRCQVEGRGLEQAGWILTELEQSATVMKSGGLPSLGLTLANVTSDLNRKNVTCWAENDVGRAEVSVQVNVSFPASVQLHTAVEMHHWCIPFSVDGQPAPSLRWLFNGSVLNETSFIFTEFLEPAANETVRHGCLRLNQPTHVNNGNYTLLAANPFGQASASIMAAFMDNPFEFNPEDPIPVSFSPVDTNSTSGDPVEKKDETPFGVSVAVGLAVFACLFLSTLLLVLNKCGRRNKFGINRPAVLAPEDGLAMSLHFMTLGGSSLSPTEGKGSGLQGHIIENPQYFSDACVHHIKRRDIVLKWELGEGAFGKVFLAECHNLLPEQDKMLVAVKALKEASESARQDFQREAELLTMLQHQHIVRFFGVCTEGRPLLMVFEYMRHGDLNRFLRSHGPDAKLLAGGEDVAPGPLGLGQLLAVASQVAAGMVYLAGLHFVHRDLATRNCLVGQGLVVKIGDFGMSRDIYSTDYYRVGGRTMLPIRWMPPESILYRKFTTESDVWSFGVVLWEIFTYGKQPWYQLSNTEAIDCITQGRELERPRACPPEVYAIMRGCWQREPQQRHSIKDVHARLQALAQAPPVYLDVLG

Q: Which inhibition at 5 µM (BRK) does the source give for `CNC(=O)c1ccc(Oc2ccc(NC(=O)c3nc(Cl)oc3-c3ccc(F)cc3)c(F)c2)cn1` [Compound 36] here?
A: < 50%

Q: What about the inhibition at 5 µM (EPH-A4) of the same compound?
A: < 50%

Q: And the “inhibition of kinase activity, EPH-A5” value (EPH-A5)?
A: E (category E is less than 50%)

Q: What about the inhibition at 5 µM (HIPK4) of the same compound?
A: 80 to 89%

Q: And the inhibition at 5 µM (KIT)?
A: < 50%

Q: And the inhibition at 5 µM (LCK)?
A: < 50%

Q: What about the inhibition at 5 µM (MUSK) of the same compound?
A: < 50%

Q: And the inhibition at 5 µM (PDGFR-a)?
A: < 50%

Q: And the inhibition at 5 µM (TRKA)?
A: < 50%

Q: What does the source list for `CSc1nc(C(=O)Nc2ccc(Oc3ccnc(C(=O)NC4CNC4)c3)c(F)c2)c(-c2ccc(F)cc2)o1` [Compound 29]?
A: inhibition at 5 µM (BRK): ≥ 95%; inhibition at 5 µM (EPH-A4): 50 to 79%; inhibition of kinase activity, EPH-A5 (EPH-A5): E (category E is less than 50%); inhibition at 5 µM (HIPK4): ≥ 95%; inhibition at 5 µM (KIT): < 50%; inhibition at 5 µM (LCK): < 50%; inhibition at 5 µM (MUSK): < 50%; inhibition at 5 µM (PDGFR-a): < 50%; inhibition at 5 µM (TRKA): < 50%

Q: What does the source list for `CNC(=O)c1cc(Oc2ccc(NC(=O)c3nc(SC)oc3-c3ccc(F)c(F)c3)cc2)ccn1` [Compound 4]?
A: inhibition at 5 µM (BRK): 50 to 79%; inhibition at 5 µM (EPH-A4): < 50%; inhibition of kinase activity, EPH-A5 (EPH-A5): E (category E is less than 50%); inhibition at 5 µM (HIPK4): ≥ 95%; inhibition at 5 µM (KIT): 50 to 79%; inhibition at 5 µM (LCK): 80 to 89%; inhibition at 5 µM (MUSK): < 50%; inhibition at 5 µM (PDGFR-a): < 50%; inhibition at 5 µM (TRKA): 50 to 79%

Q: Which results are given for `CNC(=O)c1cc(Oc2ccc(NC(=O)c3nc(SC)oc3-c3ccc(OC)cc3)cc2)ccn1` [Compound 7]?
A: inhibition at 5 µM (BRK): < 50%; inhibition at 5 µM (EPH-A4): < 50%; inhibition of kinase activity, EPH-A5 (EPH-A5): E (category E is less than 50%); inhibition at 5 µM (HIPK4): 90 to 94%; inhibition at 5 µM (KIT): < 50%; inhibition at 5 µM (LCK): ≥ 95%; inhibition at 5 µM (MUSK): < 50%; inhibition at 5 µM (PDGFR-a): < 50%; inhibition at 5 µM (TRKA): < 50%

Q: How did the inhibition at 5 µM (BRK) turn out when `[2H]C([2H])([2H])NC(=O)c1cc(Oc2ccc(NC(=O)c3nc(SC)oc3-c3ccc(F)s3)cc2F)ccn1` [Compound 35] was run?
A: < 50%

Q: What about the inhibition at 5 µM (EPH-A4) of the same compound?
A: < 50%

Q: What about the “inhibition of kinase activity, EPH-A5” value (EPH-A5) of the same compound?
A: E (category E is less than 50%)

Q: What about the inhibition at 5 µM (HIPK4) of the same compound?
A: ≥ 95%

Q: And the inhibition at 5 µM (KIT)?
A: < 50%

Q: What about the inhibition at 5 µM (LCK) of the same compound?
A: < 50%

Q: And the inhibition at 5 µM (MUSK)?
A: < 50%

Q: And the inhibition at 5 µM (PDGFR-a)?
A: < 50%

Q: And the inhibition at 5 µM (TRKA)?
A: < 50%
